A short description of data set [1]: Cytotoxicity test (SRB), A549. The data set is classed as cell-based. Conditions: human, A549 non-small cell lung cancer cells. The protocol:
(§1) Cytotoxicity of the compounds of the present invention was tested with human non-small cell lung cancer cells A549, human cervical cancer Hela cells, human skin cancer cells A431. The test was performed by referring to the method described by Rusnak et al (Rusnak D. W., et al., Cell Prolif., 2007, 40, 580-94).
(§2) In Dulbecco's Modified Eagle Medium (DMEM) comprising 10% fetal bovine serum, 2 mM glutamine and non-essential amino acids, cells were cultured at 37° C. in 5% CO2 cell incubator. Trypsin/ethylenediamine tetraacetic acid (EDTA) were used to harvest cells in cell culture bottle. The cells were added to a 96-well cell culture plate, 4000/well (0.1 ml medium), adhering wall overnight, 0.1 ml of the diluted solution of the compounds to be tested was added, the final concentration of DMSO was 0.25%. The cell culture plate was incubated at 37° C., 5% CO2 conditions for 72 h. The change of cellular morphology was observed under microscope, and then 50 μl of 50% (mass/volume) trichloroacetic acid (TCA) was added to each well to fix cells. The final concentration of TCA was 10%. It stood for 5 min, than was placed in 4° C. refrigerator for 1 h, the wells of the culture plate were washed with deionized water for 5 times to remove TCA, drained, dried in air until no wet trace was observed. 100 μl of 0.4% (mass/volume) SRB was added to each well, stood at room temperature for 10 min. The liquid in each well was discarded, and then the wells were washed with 1% acetic acid for 5 times, dried in air, extracted with 150 μl of 10 mM Tris base (trihydroxymethylaminomethane, pH 10.5). The absorption at a wavelength of 540 nm was measured. The IC50 (μM) of the compound was calculated using Logit method.

Data set [2] has as its system arterial ring angiogenesis in rats. The experiment in a line: Inhibitory actions on arterial ring angiogenesis in rats. In kind it is cell-based. Conditions: Rattus norvegicus, area covered by micrangiums vs control well, read-out: Inhibitory rate (%); for inhibition at 0.2 µg/mL: 0.2 μg/ml; for inhibition at 1 µg/mL: 1 μg/ml; for inhibition at 5 µg/mL: 5 μg/ml. The method, then:
This experiment was conducted by referring to the method described by R. F. Nicosia et al (Nicosia, R. F., et al. Am J Pathol., 1997, 151, 1379-1386). Rats were executed by cervical dislocation. The thoracic aorta was carefully separated, and placed in a container with physiological saline. The excess tissues were carefully cut off. The blood vessels were cut with a pair of ophthalmic scissors to form 1 mm thick vascular ring slices. To a pre-cooled 96-well cell culture plate, one separated vascular ring was placed in the center of each well. 70 μl of pre-molten Matrigel was carefully added to cover the vascular ring, which was incubated at 37° C. for 1 h so as to solidify it. […] The sample was placed in incubator for conventional culture, and each compound was tested at least in two repeated wells, and each test was repeated twice. […] The fresh culture medium was replaced every 3 days, and the drug was changed at the same time. The survival status of vascular rings was observed under microscope, and pictures were taken at the same time. Image Pro Plus software was used to calculate the area covered by micrangiums. The average inhibition rate was calculated by using the formula: inhibition rate (%)=(area of control well−area of drug well)/area of control well×100%.

The nature of data set [3]: Cytotoxicity test (SRB), A431. In kind it is cell-based. Conditions: human, A431 skin cancer cells. The method, then:
as §1, §2

A short description of data set [4]: Cytotoxicity test (SRB), Hela. In kind it is cell-based. Conditions: human, Hela cervical cancer cells. The method, then:
Cytotoxicity of the compounds of the present invention was tested with human non-small cell lung cancer cells A549, human cervical cancer Hela cells, human skin cancer cells A431. The test was performed by referring to the method described by Rusnak et al (Rusnak D. W., et al., Cell Prolif., 2007, 40, 580-94). […] Trypsin/ethylenediamine tetraacetic acid (EDTA) were used to harvest cells in cell culture bottle. The cells were added to a 96-well cell culture plate, 4000/well (0.1 ml medium), adhering wall overnight, 0.1 ml of the diluted solution of the compounds to be tested was added, the final concentration of DMSO was 0.25%. The cell culture plate was incubated at 37° C., 5% CO2 conditions for 72 h. […] The absorption at a wavelength of 540 nm was measured. The IC50 (μM) of the compound was calculated using Logit method.

Data set [5] relates to human colon cancer HT 29 transplanted tumor. In words: Nude mice transplanted tumor test. The data set is classed as in vivo, female Balb/cA nude mice. Also noted: key to d21 Vave ± SD (average tumor volume): tumor volume TV = ½×a×b² (a, b = major, minor diameter), in mm³. As to conditions: for Dead animal number / inhibition in vivo at 80 mg/kg / d21 Wave ± SD (average bodyweight of nude mice) / d21 Vave ± SD (average tumor volume) / d21 RTV ± SD (relative tumor volume): 80 mg/kg intragastrically each day for 20 days; for Dead animal number: dead/total animals; for inhibition in vivo at 80 mg/kg: Mus musculus, HT-29, po, 504 h, (1−T/C)×100%, read-out: Tumor inhibition rate d21 (%); for inhibition in vivo at 80 mg/kg / d21 Wave ± SD (average bodyweight of nude mice) / d21 Vave ± SD (average tumor volume) / d21 RTV ± SD (relative tumor volume): d21; for d0 Wave ± SD (average bodyweight of nude mice): d0, at grouping before administration (baseline); for d21 Vave ± SD (average tumor volume): HT 29 in nude mice; for d21 RTV ± SD (relative tumor volume): RTV=Vt/V0; for Activity of inhibiting HT-29 transplanted tumor in vivo (in words): 80 mg/kg, compared with positive control Sunitinib. The protocol:
The nude mice transplanted tumor test used female Balb/cA nude mice, and tumor strains were human colon cancer HT 29 strains.
Under sterile condition, eugonic tumor tissues stage were cut into pieces of about 1.5 mm^3, and inoculated at right axillary fossa of the nude mice. The transplanted tumor diameter was measured by vernier caliper, and the animals were randomly grouped after the tumors grew to about 120 mm^3. The positive control group and the compounds group in a dosage of 80 mg/kg were administered intragastrically each day for consecutive 20 days. The negative control group was given equivalent amount of injection water containing 0.1% Tween 80. Tumor diameters and the bodyweight of mice were measured 2-3 times every week. The evaluation indexes observed in the test include relative tumor proliferation rate, bodyweight and general states. The formulation for calculating tumor volume (TV) is: TV=½×a×b^2, wherein a, b represent major diameter and minor diameter of tumor; Relative tumor volume (RTV) was calculated according the results of measurement by the following formula: RTV=Vt/V0, wherein V0 is tumor volume measured when dividing groups for administration, and Vt is tumor volume measured after each administration.

By IC50 is commonly meant the midpoint of a concentration-inhibition curve.

The molecule `Cc1[nH]c(/C=C2\C(=O)Nc3ccc(F)cc32)c(C)c1NC(=O)CCCN(C)C` [Compound 5, N-{5-[5-fluoro-2-oxo-1,2-dihydro-indol-(3Z)-ylidenemethyl]-2,4-dimethyl-1H-pyrrol-3-yl}-4-(N,N-dimethylamino)butyramide] gave an IC50 at 72 h in data set [1] above 30 µM. In data set [2], the inhibition at 0.2 µg/mL worked out at 93%, the inhibition at 1 µg/mL came to 100% and the inhibition at 5 µg/mL is 100%. Besides, in data set [3], the IC50 at 72 h was above 30 µM. This molecule also yielded an IC50 at 72 h in data set [4] above 30 µM. Further, in data set [5], the Dead animal number is listed as 0/6, the inhibition in vivo at 80 mg/kg is 86.6%, the “d0 Wave ± SD (average bodyweight of nude mice)” value (from here on “d0 Wave ± SD”) was 18.9 ± 1.00 and the “d21 Wave ± SD (average bodyweight of nude mice)” value (“d21 Wave ± SD” below) is given as 18.6 ± 0.87. In addition, in data set [5], the “d21 RTV ± SD (relative tumor volume)” value came out at 0.96 ± 0.42. The “d21 Vave ± SD (average tumor volume)” value in data set [5] (in mm³ (unit assumed)) is given as 111.8 ± 28.2.

As to `CCN(CC)CCC(=O)Nc1c(C)[nH]c(/C=C2\C(=O)Nc3ccc(NS(C)(=O)=O)cc32)c1C` [Compound 8, N-{5-[5-methylsulfonylamino-2-oxo-1,2-dihydro-indol-(3Z)-ylidenemethyl]-2,4-dimethyl-1H-pyrrol-3-yl}-3-(N,N-diethylamino)propionamide], the IC50 at 72 h in data set [1] was above 30 µM. Further, in data set [2], the inhibition at 0.2 µg/mL amounted to 94%, the inhibition at 1 µg/mL stood at 100% and the inhibition at 5 µg/mL was 100%. This molecule also gave an IC50 at 72 h in data set [3] above 30 µM. In addition, the IC50 at 72 h in data set [4] is above 30 µM. Besides, in data set [5], the Dead animal number is on record as 0/6, the inhibition in vivo at 80 mg/kg was 78.9%, the “d0 Wave ± SD” value was 19.2 ± 0.32 and the “d21 Wave ± SD” value is reported as 17.8 ± 0.65. In data set [5], the “d21 RTV ± SD (relative tumor volume)” value worked out at 1.52 ± 0.56. For the same molecule, the “d21 Vave ± SD (average tumor volume)” value in data set [5] (in mm³ (unit assumed)) was found to be 186.0 ± 53.1.

The molecule `CCN1CCN(CCC(=O)Nc2c(C)[nH]c(/C=C3\C(=O)Nc4ccc(F)cc43)c2C)CC1` [Compound 10, N-{5-[5-fluoro-2-oxo-1,2-dihydro-indol-(3Z)-ylidenemethyl]-2,4-dimethyl-1H-pyrrol-3-yl}-3-(4-ethylpiperazin-1-yl)propionamide] displayed an IC50 at 72 h in data set [1] above 30 µM. Further, in data set [2], the inhibition at 0.2 µg/mL worked out at 98%, the inhibition at 1 µg/mL turned out to be 100% and the inhibition at 5 µg/mL came out at 100%. Moreover, in data set [3], the IC50 at 72 h was above 30 µM. The IC50 at 72 h in data set [4] was above 30 µM. Moreover, in data set [5], the Dead animal number is reported as 0/6, the “Activity of inhibiting HT-29 transplanted tumor in vivo (in words)” value is “inhibitory activity comparable to the positive control Sunitinib”, the inhibition in vivo at 80 mg/kg is 86.4% and the “d0 Wave ± SD” value is on record as 18.7 ± 1.10. Moreover, in data set [5], the “d21 Wave ± SD” value came to 18.9 ± 0.97 and the “d21 RTV ± SD (relative tumor volume)” value stood at 0.98 ± 0.34. In addition, the “d21 Vave ± SD (average tumor volume)” value in data set [5] (in mm³ (unit assumed)) amounted to 112.8 ± 36.4.

In the case of `Cc1[nH]c(/C=C2\C(=O)Nc3ccc(F)cc32)c(C)c1NC(=O)CCN1CCN(C)CC1` [Compound 11, N-{5-[5-fluoro-2-oxo-1,2-dihydro-indol-(3Z)-ylidenemethyl]-2,4-dimethyl-1H-pyrrol-3-yl}-3-(4-methylpiperazin-1-yl)propionamide], the IC50 at 72 h in data set [1] was above 30 µM. Moreover, in data set [2], the inhibition at 0.2 µg/mL was determined as 99%, the inhibition at 1 µg/mL worked out at 100% and the inhibition at 5 µg/mL came out at 100%. Besides, the IC50 at 72 h in data set [3] was above 30 µM. The molecule also gave an IC50 at 72 h in data set [4] above 30 µM. Moreover, in data set [5], the Dead animal number is 0/6, the “Activity of inhibiting HT-29 transplanted tumor in vivo (in words)” value is reported as “inhibitory activity comparable to the positive control Sunitinib”, the inhibition in vivo at 80 mg/kg came out at 88.5% and the “d0 Wave ± SD” value came out at 18.5 ± 0.55. For the same molecule, in data set [5], the “d21 Wave ± SD” value is on record as 20.5 ± 0.49 and the “d21 RTV ± SD (relative tumor volume)” value is recorded as 0.83 ± 0.52. Also, the “d21 Vave ± SD (average tumor volume)” value in data set [5] (in mm³ (unit assumed)) came to 96.7 ± 35.4.

In data set [1], `Cc1[nH]c(/C=C2\C(=O)Nc3ccc(F)cc32)c(C)c1NC(=O)CN1CCCCC1` [Compound 16, N-{5-[5-fluoro-2-oxo-1,2-dihydro-indol-(3Z)-ylidenemethyl]-2,4-dimethyl-1H-pyrrol-3-yl}-2-(piperidin-1-yl)acetamide] showed an IC50 at 72 h above 30 µM. Also, in data set [2], the inhibition at 0.2 µg/mL was 91%, the inhibition at 1 µg/mL stood at 100% and the inhibition at 5 µg/mL came to 100%. Also, in data set [3], the IC50 at 72 h was determined as 6.25 µM. The IC50 at 72 h in data set [4] was above 30 µM. In addition, in data set [5], the Dead animal number is 0/6, the inhibition in vivo at 80 mg/kg worked out at 68.7%, the “d0 Wave ± SD” value amounted to 19.5 ± 0.46 and the “d21 Wave ± SD” value is recorded as 18.5 ± 0.59. Also, the “d21 RTV ± SD (relative tumor volume)” value in data set [5] was 2.25 ± 0.37. The “d21 Vave ± SD (average tumor volume)” value in data set [5] (in mm³ (unit assumed)) is recorded as 268.4 ± 33.8.

`Cc1[nH]c(/C=C2\C(=O)Nc3ccc(F)cc32)c(C)c1NC(=O)CN1CCCC1` [Compound 17, N-{5-[5-fluoro-2-oxo-1,2-dihydro-indol-(3Z)-ylidenemethyl]-2,4-dimethyl-1H-pyrrol-3-yl}-2-(tetrahydropyrrol-1-yl)acetamide]: the IC50 at 72 h in data set [1] was above 30 µM. Moreover, in data set [2], the inhibition at 0.2 µg/mL was 89%, the inhibition at 1 µg/mL is 100% and the inhibition at 5 µg/mL came to 100%. The IC50 at 72 h in data set [3] was above 30 µM. This molecule yielded an IC50 at 72 h in data set [4] above 30 µM. Besides, in data set [5], the Dead animal number was 0/6, the inhibition in vivo at 80 mg/kg was found to be 63.5%, the “d0 Wave ± SD” value was found to be 18.9 ± 0.58 and the “d21 Wave ± SD” value came out at 19.2 ± 0.82. In data set [5], the “d21 Vave ± SD (average tumor volume)” value turned out to be 324.5 ± 39.4 and the “d21 RTV ± SD (relative tumor volume)” value was determined as 2.63 ± 0.53.

(Values after patent US8637681B2, “Pyrrolyl substituted dihydroindol-2-one derivatives, preparation methods and uses thereof” (Qilu Pharmaceutical Co., Ltd., priority 2010, dated 2014).)
